# Values of other authors, collected in patent US20160128912A1, “Personal Care Compositions and Hangers” (The Procter & Gamble Company, priority 2014, published 2016).
row,SMILES,Log (water Solubility in mol/L)
1,"Oc1cc(Cl)ccc1Oc1ccc(Cl)cc1Cl [Triclosan, reference compound]",−2.46
2,OCc1ccccc1 [benzyl Alcohol],−0.47
3,CCOC(=O)c1ccc(O)cc1 [ethyl paraben],−1.91
4,"O=C(O)c1ccccc1O [Salicylic acid, reference compound]",−1.41

# Further lines, results first:
row,Log (water Solubility in mol/L),SMILES
1,−0.83,OCCc1ccccc1 [phenethyl alcohol]
2,−0.33,C/C=C/C=C/C(=O)O [sorbic acid]
3,−3.08,CCCCCCC(O)CO (centres unmarked) [caprylyl glycol]
4,−3.15,C=CCCCCCCCCC(=O)O [Undecylenic Acid]
